{"source": "ChEMBL document CHEMBL2029278", "about": "(Bioorg Med Chem Lett, 2012)", "key": {"[1]": {"target": "T1, Neuraminidase (Influenza A virus, UniProt B4URF0)", "T1 sequence (B4URF0 whole entry)": "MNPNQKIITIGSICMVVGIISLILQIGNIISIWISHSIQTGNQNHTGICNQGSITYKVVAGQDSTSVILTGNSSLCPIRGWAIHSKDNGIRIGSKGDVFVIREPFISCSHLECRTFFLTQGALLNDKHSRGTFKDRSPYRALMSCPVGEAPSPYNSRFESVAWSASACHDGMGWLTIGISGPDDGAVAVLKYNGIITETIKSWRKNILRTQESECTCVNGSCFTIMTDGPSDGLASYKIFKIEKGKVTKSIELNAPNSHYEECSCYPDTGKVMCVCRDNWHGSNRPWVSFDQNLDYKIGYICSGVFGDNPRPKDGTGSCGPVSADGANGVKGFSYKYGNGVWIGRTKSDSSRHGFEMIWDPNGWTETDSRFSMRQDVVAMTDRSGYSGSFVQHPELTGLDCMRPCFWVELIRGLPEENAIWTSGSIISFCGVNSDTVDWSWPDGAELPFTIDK", "assay": "Inhibition of Influenza A virus H1N1 neuraminidase using 4-MU-NANA as substrate by fluorescence assay"}, "[2]": {"target": "T1, Neuraminidase", "assay": "Inhibition of Influenza A virus H9N2 neuraminidase using 4-MU-NANA as substrate by fluorescence assay"}, "[3]": {"target": "T1, Neuraminidase", "assay": "Inhibition of wild type H1N1 swine influenza virus neuraminidase using 4-MU-NANA as substrate by fluorescence assay"}, "[4]": {"tested_on": "Influenza A virus", "assay": "Antiviral activity against Influenza A virus PR/8/34 H1N1 infected in dog MDCK cells assessed as reduction in virus-induced cytopathic effect at 5 ug/mL", "assay_type": "functional, organism-based", "conditions": "A/Puerto Rico/8/1934(H1N1)"}}, "note": "The source made the active and inactive calls. The calls are words filed in the database; no cut-off is given here."}
{"smiles": "COc1c(O)cc2c(=O)c3ccccc3oc2c1OC", "values": [{"measurement": "IC50", "setting": "[1]", "result": "> 367", "unit": "µM"}, {"measurement": "IC50", "setting": "[2]", "result": "> 367", "unit": "µM"}]}
{"smiles": "COc1c(O)cc2oc3cc(O)ccc3c(=O)c2c1OC", "values": [{"measurement": "IC50", "setting": "[1]", "result": "> 347", "unit": "µM"}, {"measurement": "IC50", "setting": "[2]", "result": "> 347", "unit": "µM"}]}
{"smiles": "COc1c2c(cc3c(=O)c4ccccc4oc13)OCO2", "values": [{"measurement": "IC50", "setting": "[1]", "result": "> 370", "unit": "µM"}, {"measurement": "IC50", "setting": "[2]", "result": "> 370", "unit": "µM"}]}
{"smiles": "O=c1c2ccccc2oc2cc(O)cc(O)c12", "values": [{"measurement": "IC50", "setting": "[1]", "result": 102, "unit": "µM"}, {"measurement": "IC50", "setting": "[2]", "result": 67.7, "unit": "µM"}, {"measurement": "IC50", "setting": "[3]", "result": 48.9, "unit": "µM"}, {"measurement": "Activity", "setting": "[4]", "result": "Active"}]}
{"smiles": "COc1ccc(O)c2c(=O)c3cc(O)ccc3oc12", "values": [{"measurement": "IC50", "setting": "[1]", "result": 110, "unit": "µM"}, {"measurement": "IC50", "setting": "[2]", "result": 99.1, "unit": "µM"}, {"measurement": "IC50", "setting": "[3]", "result": 36.1, "unit": "µM"}, {"measurement": "Activity", "setting": "[4]", "result": "Active"}]}
{"smiles": "COc1cc(O)c2oc3ccccc3c(=O)c2c1OC", "values": [{"measurement": "IC50", "setting": "[1]", "result": "> 367", "unit": "µM"}, {"measurement": "IC50", "setting": "[2]", "result": "> 367", "unit": "µM"}]}
{"smiles": "O=c1c2cc(O)ccc2oc2cc(O)cc(O)c12", "values": [{"measurement": "IC50", "setting": "[1]", "result": 110, "unit": "µM"}, {"measurement": "IC50", "setting": "[2]", "result": 101, "unit": "µM"}, {"measurement": "IC50", "setting": "[3]", "result": 54.9, "unit": "µM"}, {"measurement": "Activity", "setting": "[4]", "result": "Active"}]}
{"smiles": "O=c1c2cc(O)ccc2oc2cccc(O)c12", "values": [{"measurement": "IC50", "setting": "[1]", "result": 103, "unit": "µM"}, {"measurement": "IC50", "setting": "[2]", "result": 98.4, "unit": "µM"}, {"measurement": "IC50", "setting": "[3]", "result": 50.6, "unit": "µM"}, {"measurement": "Activity", "setting": "[4]", "result": "Active"}]}
{"smiles": "COc1cccc2oc3ccc(O)cc3c(=O)c12", "values": [{"measurement": "IC50", "setting": "[1]", "result": "> 413", "unit": "µM"}, {"measurement": "IC50", "setting": "[2]", "result": "> 413", "unit": "µM"}]}
{"smiles": "O=c1c2cccc(O)c2oc2cc(O)c(O)c(O)c12", "values": [{"measurement": "IC50", "setting": "[1]", "result": 103, "unit": "µM"}, {"measurement": "IC50", "setting": "[2]", "result": 76.1, "unit": "µM"}, {"measurement": "IC50", "setting": "[3]", "result": 52.6, "unit": "µM"}, {"measurement": "Activity", "setting": "[4]", "result": "Active"}]}
